Laboratory results as given in the supplement of paper PMC10627819.

Experiments:
[1] = tested on: S. aureus Newman; assay: fitness (endpoint OD595 vs no drug) (fraction); higher = more growth
In short: (§1)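 Fitness is computed from the optical density at which cultures reach stationary phase, divided by the robust mean of no-drug control wells. Any value above 1 is set to 1. Cultures started at OD595 0.01 in 384-well plates with TSB, LB Lennox or CY at 37 °C, and OD595 was read every 30 min for 14 h against a first-reading background.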

[2] = tested on: B. subtilis 168; assay: as above
In short: as §1

[3] = tested on: S. pneumoniae D39V; assay: as above
In short: as §1

[4] = tested on: S. aureus Newman; assay: Bliss interaction score (quartile over a dose matrix) (fitness difference); higher = more antagonism (negative = synergy)
In short: (§2)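 Growth was read as OD595 when cultures entered stationary phase, and each value was divided by the plate's robust no-drug mean and capped at 1. This normalised ratio is the fitness value, and fitness for each single drug came from the combination data. The Bliss score subtracts the expected fitness, taken as the product, from the observed fitness and is given as quartiles across technical, biological and donor/recipient replicates.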

[5] = tested on: S. aureus DSM 20231; assay: as above
In short: as §2

[6] = tested on: B. subtilis 168; assay: as above
In short: as §2

[7] = tested on: S. pneumoniae D39V; assay: as above
In short: as §2

[8] = first compound 1.562 µg/mL, partner 0.039 µg/mL
[9] = first compound 1.562 µg/mL, partner 0.078 µg/mL
[10] = first compound 1.562 µg/mL, partner 0.156 µg/mL
[11] = first compound 3.124 µg/mL, partner 0.039 µg/mL
[12] = first compound 3.124 µg/mL, partner 0.078 µg/mL
[13] = first compound 3.124 µg/mL, partner 0.156 µg/mL
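For Bliss interaction score (quartile over a dose matrix) in this document: first quartile when negative (synergy) and third quartile when positive (antagonism).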
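For fitness (endpoint OD595 vs no drug) in this document: OD595 on entry to stationary phase over no-drug wells; at most 1.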

O=C(O)c1cn(C2CC2)c2cc(N3CCNCC3)c(F)cc2c1=O [Ciprofloxacin] + CN[C@@H]1[C@H](O)[C@H](NC)[C@H]2O[C@@]3(O)C(=O)C[C@@H](C)O[C@H]3O[C@@H]2[C@H]1O [Spectinomycin]
fitness ([1]; first compound 0.0375 µg/mL, partner 4 µg/mL): 0.643
fitness ([1]; first compound 0.0375 µg/mL, partner 8 µg/mL): 0.666
fitness ([1]; first compound 0.0375 µg/mL, partner 16 µg/mL): 0.622
fitness ([1]; first compound 0.075 µg/mL, partner 4 µg/mL): 0.627
fitness ([1]; first compound 0.075 µg/mL, partner 16 µg/mL): 0.615
fitness ([1]; first compound 0.078 µg/mL, partner 16 µg/mL, one replicate): 0.203
fitness ([1]; first compound 0.078 µg/mL, partner 32 µg/mL, one replicate): 0.116
fitness ([1]; first compound 0.078 µg/mL, partner 64 µg/mL, one replicate): 0.0489
fitness ([1]; first compound 0.15 µg/mL, partner 8 µg/mL): 0.0938
fitness ([1]; first compound 0.15 µg/mL, partner 16 µg/mL): 0.0557
fitness ([1]; first compound 0.156 µg/mL, partner 16 µg/mL, one replicate): 0.0195
fitness ([1]; first compound 0.156 µg/mL, partner 32 µg/mL, one replicate): 0.0216
fitness ([1]; first compound 0.156 µg/mL, partner 64 µg/mL, one replicate): 0.0519
fitness ([1]; first compound 0.312 µg/mL, partner 16 µg/mL, one replicate): 0.0278
fitness ([1]; first compound 0.312 µg/mL, partner 32 µg/mL, one replicate): 0.0094
fitness ([1]; first compound 0.312 µg/mL, partner 64 µg/mL, one replicate): 0.102
fitness ([2]; first compound 0.0098 µg/mL, partner 2 µg/mL): 0.949
fitness ([2]; first compound 0.0098 µg/mL, partner 4 µg/mL): 0.897
fitness ([2]; first compound 0.0098 µg/mL, partner 8 µg/mL): 0.94
fitness ([2]; first compound 0.0195 µg/mL, partner 2 µg/mL): 0.694
fitness ([2]; first compound 0.0195 µg/mL, partner 4 µg/mL): 0.741
fitness ([2]; first compound 0.0195 µg/mL, partner 8 µg/mL): 0.789
fitness ([2]; first compound 0.039 µg/mL, partner 4 µg/mL): 0.257
fitness ([3]; first compound 0.125 µg/mL, partner 4 µg/mL): 0.919
fitness ([3]; first compound 0.125 µg/mL, partner 8 µg/mL): 0.913
fitness ([3]; first compound 0.125 µg/mL, partner 16 µg/mL): 0.706
fitness ([3]; first compound 0.25 µg/mL, partner 4 µg/mL): 0.797
fitness ([3]; first compound 0.25 µg/mL, partner 8 µg/mL): 0.795
fitness ([3]; first compound 0.25 µg/mL, partner 16 µg/mL, one replicate): 0.48
fitness ([3]; first compound 0.5 µg/mL, partner 16 µg/mL): 0.446
Bliss interaction score [4]: -0.0629
Bliss interaction score [5]: 0.0785
Bliss interaction score [6]: 0.0965
Bliss interaction score [7]: -0.0847

C[C@@H]1O[C@@H]1P(=O)(O)O [Fosfomycin] + CN(C)c1cc(NC(=O)CNC(C)(C)C)c(O)c2c1C[C@H]1C[C@H]3[C@H](N(C)C)C(O)=C(C(N)=O)C(=O)[C@@]3(O)C(O)=C1C2=O [Tigecycline]
fitness ([1]; first compound 0.781 µg/mL, partner 0.039 µg/mL): 0.558
fitness ([1]; first compound 0.781 µg/mL, partner 0.078 µg/mL): 0.57
fitness ([1]; first compound 0.781 µg/mL, partner 0.156 µg/mL): 0.593
fitness [1, 8]: 0.47
fitness [1, 9]: 0.504
fitness [1, 10]: 0.518
fitness [1, 11]: 0.177
fitness [1, 12]: 0.188
fitness [1, 13]: 0.184
fitness [2, 8]: 0.76
fitness [2, 9]: 0.746
fitness ([2]; first compound 1.562 µg/mL, partner 0.125 µg/mL, one replicate): 0.833
fitness [2, 10]: 0.713
fitness ([2]; first compound 1.562 µg/mL, partner 0.25 µg/mL, one replicate): 0.819
fitness ([2]; first compound 1.562 µg/mL, partner 0.5 µg/mL, one replicate): 0.753
fitness [2, 11]: 0.655
fitness [2, 12]: 0.598
fitness ([2]; first compound 3.124 µg/mL, partner 0.125 µg/mL, one replicate): 0.771
fitness [2, 13]: 0.595
fitness ([2]; first compound 3.124 µg/mL, partner 0.25 µg/mL, one replicate): 0.662
fitness ([2]; first compound 3.124 µg/mL, partner 0.5 µg/mL, one replicate): 0.683
fitness ([2]; first compound 6.248 µg/mL, partner 0.039 µg/mL): 0.52
fitness ([2]; first compound 6.248 µg/mL, partner 0.078 µg/mL): 0.488
fitness ([2]; first compound 6.248 µg/mL, partner 0.125 µg/mL, one replicate): 0.576
fitness ([2]; first compound 6.248 µg/mL, partner 0.156 µg/mL): 0.492
fitness ([2]; first compound 6.248 µg/mL, partner 0.25 µg/mL, one replicate): 0.537
fitness ([2]; first compound 6.248 µg/mL, partner 0.5 µg/mL, one replicate): 0.568
fitness ([3]; first compound 1.25 µg/mL, partner 0.325 µg/mL): 0.929
fitness ([3]; first compound 1.25 µg/mL, partner 0.65 µg/mL): 0.921
fitness ([3]; first compound 1.25 µg/mL, partner 1.3 µg/mL): 0.942
fitness ([3]; first compound 1.25 µg/mL, partner 2.6 µg/mL): 0.921
fitness ([3]; first compound 2.5 µg/mL, partner 0.325 µg/mL): 0.953
fitness ([3]; first compound 2.5 µg/mL, partner 0.65 µg/mL): 0.912
fitness ([3]; first compound 2.5 µg/mL, partner 1.3 µg/mL): 0.92
fitness ([3]; first compound 2.5 µg/mL, partner 2.6 µg/mL): 0.86
fitness ([3]; first compound 5 µg/mL, partner 0.325 µg/mL): 0.796
fitness ([3]; first compound 5 µg/mL, partner 0.65 µg/mL): 0.748
fitness ([3]; first compound 5 µg/mL, partner 1.3 µg/mL): 0.791
fitness ([3]; first compound 5 µg/mL, partner 2.6 µg/mL): 0.809
Bliss interaction score [4]: -0.0631
Bliss interaction score [5]: 0.044
Bliss interaction score [6]: -0.0396
Bliss interaction score [7]: 0.0555
